Results from PubChem BioAssay (NCI).
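Compound exposure: 48 hours, 5 concentrations, 96-well plates. TGI: total growth inhibition.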

Assays:
Assay in all cases: NCI-60 cell line screen, 48 h
[1] = system: NCI-H522 lung
[2] = system: MCF7 breast
[3] = system: A498 renal
[4] = system: SK-MEL-5 melanoma
[5] = system: HCC-2998 colon
[6] = system: UO-31 renal
[7] = system: PC-3 prostate
[8] = system: KM12 colon
[9] = system: MDA-MB-435
[10] = system: RXF 393 renal
[11] = system: LOX IMVI melanoma
[12] = system: OVCAR-5 ovarian
[13] = system: HOP-92 NSCLC
[14] = system: ACHN renal
[15] = system: T-47D breast
[16] = system: OVCAR-8 ovarian
[17] = system: OVCAR-4 ovarian
[18] = system: HT29 colon
[19] = system: K-562 leukemia
[20] = system: HCT-116 colon
[21] = system: COLO 205 colon
[22] = system: NCI/ADR-RES ovarian
[23] = system: OVCAR-3 ovarian
[24] = system: MDA-MB-231 breast
[25] = system: MALME-3M melanoma
[26] = system: SK-MEL-28 melanoma
[27] = system: SF-295 CNS
[28] = system: CCRF-CEM leukemia
[29] = system: HOP-62 NSCLC
[30] = system: NCI-H226 lung
[31] = system: MDA-N
[32] = system: MOLT-4 leukemia
[33] = system: SNB-75 CNS
[34] = system: SN12C renal
[35] = system: EKVX NSCLC
[36] = system: TK-10 renal
[37] = system: SF-539 CNS
[38] = system: IGROV1 ovarian
[39] = system: SF-268 CNS
[40] = system: U251 CNS
[41] = system: CAKI-1 renal
[42] = system: A549 NSCLC
[43] = system: NCI-H23 lung
[44] = system: SK-OV-3 ovarian
[45] = system: HS 578T breast
[46] = system: SK-MEL-2 melanoma
[47] = system: DU-145 prostate
[48] = system: SW-620 colon
[49] = system: RPMI-8226 leukemia
[50] = system: SR leukemia
[51] = system: UACC-257 melanoma
[52] = system: HCT-15 colon
[53] = system: HL-60(TB) leukemia
[54] = system: NCI-H460 lung
[55] = system: 786-0 renal
[56] = system: M14 melanoma
[57] = system: SNB-19 CNS

O=c1ccn(C2OC(COC3CCCCO3)C(OC3CCCCO3)C2OC2CCCCO2)c(=O)n1-c1ccccc1 (configuration not stated)
TGI [1]: > 100 µM | TGI [2]: > 100 µM | TGI [3]: > 100 µM | TGI [4]: > 100 µM | TGI [5]: > 100 µM | TGI [6]: > 100 µM | TGI [7]: > 100 µM | TGI [8]: > 100 µM | TGI [9]: > 100 µM | TGI [10]: > 100 µM | TGI [11]: > 100 µM | TGI [12]: > 100 µM | TGI [13]: > 100 µM | TGI [14]: > 100 µM | TGI [15]: > 100 µM | TGI [16]: > 100 µM | TGI [17]: > 100 µM | TGI [18]: > 100 µM | TGI [19]: > 100 µM | TGI [20]: > 100 µM | TGI [21]: > 100 µM | TGI [22]: > 100 µM | TGI [23]: > 100 µM | TGI [24]: > 100 µM | TGI [25]: > 100 µM | TGI [26]: > 100 µM | TGI [27]: > 100 µM | TGI [28]: > 100 µM | TGI [29]: > 100 µM | TGI [30]: > 100 µM | TGI [31]: > 100 µM | TGI [32]: > 100 µM | TGI [33]: > 100 µM | TGI [34]: > 100 µM | TGI [35]: > 100 µM | TGI [36]: > 100 µM | TGI [37]: > 100 µM | TGI [38]: > 100 µM | TGI [39]: > 100 µM | TGI [40]: > 100 µM | TGI [41]: > 100 µM | TGI [42]: > 100 µM | TGI [43]: > 100 µM | TGI [44]: > 100 µM | TGI [45]: > 100 µM | TGI [46]: > 100 µM | TGI [47]: > 100 µM | TGI [48]: > 100 µM | TGI [49]: > 100 µM | TGI [50]: > 100 µM | TGI [51]: > 100 µM | TGI [52]: > 100 µM | TGI [53]: > 100 µM | TGI [54]: > 100 µM | TGI [55]: > 100 µM | TGI [56]: > 100 µM | TGI [57]: > 100 µM

CCOC(=O)Cn1nc2ccc(Nc3c(C)[n+]([O-])c4cc(F)c(OCC)cc4[n+]3[O-])cc2n1
TGI [1]: > 100 µM | TGI [2]: > 100 µM | TGI [3]: > 100 µM | TGI [4]: > 100 µM | TGI [6]: > 100 µM | TGI [7]: > 100 µM | TGI [8]: > 100 µM | TGI [9]: > 100 µM | TGI [10]: 51.9 µM | TGI [11]: > 100 µM | TGI [12]: > 100 µM | TGI [13]: 63.8 µM | TGI [14]: 90.2 µM | TGI [15]: > 100 µM | TGI [16]: > 100 µM | TGI [17]: > 100 µM | TGI [18]: > 100 µM | TGI [19]: > 100 µM | TGI [20]: > 100 µM | TGI [22]: > 100 µM | TGI [23]: > 100 µM | TGI [24]: > 100 µM | TGI [26]: > 100 µM | TGI [27]: > 100 µM | TGI [28]: > 100 µM | TGI [29]: > 100 µM | TGI [30]: > 100 µM | TGI [31]: > 100 µM | TGI [32]: > 100 µM | TGI [35]: > 100 µM | TGI [36]: 71.8 µM | TGI [37]: > 100 µM | TGI [38]: > 100 µM | TGI [39]: > 100 µM | TGI [40]: > 100 µM | TGI [41]: > 100 µM | TGI [43]: > 100 µM | TGI [44]: > 100 µM | TGI [45]: > 100 µM | TGI [46]: > 100 µM | TGI [47]: > 100 µM | TGI [48]: > 100 µM | TGI [49]: > 100 µM | TGI [50]: > 100 µM | TGI [51]: > 100 µM | TGI [52]: > 100 µM | TGI [53]: > 100 µM | TGI [54]: > 100 µM | TGI [55]: > 100 µM | TGI [56]: > 100 µM
